From the supplement of paper PMC11208160 come the findings set out here.
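Also: IS621 bridge recombinase in Escherichia coli cells against a fixed T5 target plasmid.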

The series in a line: recombinant UMI read abundance after kanamycin selection (control-corrected) (log10(CPM+1)); higher = more efficient recombination; extreme values may be limits of the assay; sequences stand for … in AGTGCAGAGAAAATCGGCCAGTTTTCTCTGCCTGCAGTCCGCATGCCGTGGGACCCCTTGGGTTCTAACCTGTTGCCTAGATTTATGCAGCGGACTGCCTTTCTCCCAAAGTGATAAACCGG…AGGTTGGTTTCACT; site = the 11-nt donor. Put shortly:
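Under IPTG (0.07 mM) plus kanamycin, or without selection, Escherichia coli carrying a UMI-tagged donor and donor-binding-loop pair library and a target plasmid for the IS621 bridge recombinase were plated in two replicates. Recombinant UMIs were PCR-amplified across the donor–target junction and sequenced. Counts were converted to CPM, averaged over replicates, scaled by control-derived factors and reported as log10(CPM+1).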
In the case of “TAGACTTCATGGACCGGTTTTCCCGGTAATCCGTATTTGGT (site TAGCCTTCTAC)”, the “recombinant UMI read abundance (log10)” value stood at 0.0272.

Turning to “TAGACTTCATGGACCGGTTTTCCCGGTAATCCGTATTTGGT (site TAGGCTTCTAC)”, the “recombinant UMI read abundance (log10)” value stood at 0.329.

On to “TAGACTTCATGGACCGGTTTTCCCGGTAATCCGTATTTGGT (site TAGTCTTCTAC)”, for which the “recombinant UMI read abundance (log10)” value turned out to be 0.175.

Consider “TAGAGAACATGGACCGGTTTTCCCGGTAATCCGTATTTGAG (site TAGAGAACTCT)”, for which the “recombinant UMI read abundance (log10)” value was found to be 1.87.

On to “TAGAGCCCATGGACCGGTTTTCCCGGTAATCCGTATTTGCG (site TAGAGCCCTCG)”, for which the “recombinant UMI read abundance (log10)” value stood at 0.457.

For the sequence “TAGAGTCCATGGACCGGTTTTCCCGGTAATCCGTATTTGTA (site TAAAGTCCTTA)”, the “recombinant UMI read abundance (log10)” value was 0.546.

With “TAGAGTCCATGGACCGGTTTTCCCGGTAATCCGTATTTGTA (site TACAGTCCTTA)”, the “recombinant UMI read abundance (log10)” value amounted to 0.159.

With “TAGAGTCCATGGACCGGTTTTCCCGGTAATCCGTATTTGTA (site TAGAGTCCTTA)”, the “recombinant UMI read abundance (log10)” value worked out at 1.37.

As to “TAGAGTCCATGGACCGGTTTTCCCGGTAATCCGTATTTGTA (site TATAGTCCTTA)”, the “recombinant UMI read abundance (log10)” value was 0.132.

On to “TAGATGACATGGACCGGTTTTCCCGGTAATCCGTATTTGCT (site TAGATGACTAG)”, for which the “recombinant UMI read abundance (log10)” value came to 2.49.

As to “TAGATTACATGGACCGGTTTTCCCGGTAATCCGTATTTGCA (site TAGAATACTTG)”, the “recombinant UMI read abundance (log10)” value came out at 0.304.

Turning to “TAGATTACATGGACCGGTTTTCCCGGTAATCCGTATTTGCA (site TAGACTACTTG)”, the “recombinant UMI read abundance (log10)” value was found to be 0.98.

In the case of “TAGATTACATGGACCGGTTTTCCCGGTAATCCGTATTTGCA (site TAGAGTACTTG)”, the “recombinant UMI read abundance (log10)” value was found to be 0.616.

“TAGATTACATGGACCGGTTTTCCCGGTAATCCGTATTTGCA (site TAGATTACTTG)”: the “recombinant UMI read abundance (log10)” value turned out to be 1.52.

Regarding “TAGCCCACATGGACCGGTTTTCCCGGTAATCCGTATTTGTT (site TAGCCCACTAA)”, the “recombinant UMI read abundance (log10)” value is 0.409.

Regarding “TAGCCGGCATGGACCGGTTTTCCCGGTAATCCGTATTTGTA (site TAGCCGGCTTA)”, the “recombinant UMI read abundance (log10)” value turned out to be 0.599.

Turning to “TAGCTGGCATGGACCGGTTTTCCCGGTAATCCGTATTTGAA (site TAGCTAGCTTT)”, the “recombinant UMI read abundance (log10)” value is 0.588.

Turning to “TAGCTGGCATGGACCGGTTTTCCCGGTAATCCGTATTTGAA (site TAGCTCGCTTT)”, the “recombinant UMI read abundance (log10)” value was 0.0161.

“TAGCTGGCATGGACCGGTTTTCCCGGTAATCCGTATTTGAA (site TAGCTGGCTTT)”: the “recombinant UMI read abundance (log10)” value came out at 0.732.

Regarding “TAGCTGGCATGGACCGGTTTTCCCGGTAATCCGTATTTGAA (site TAGCTTGCTTT)”, the “recombinant UMI read abundance (log10)” value was found to be 0.

“TAGCTTACATGGACCGGTTTTCCCGGTAATCCGTATTTGTC (site TAGCTTACTGA)”: the “recombinant UMI read abundance (log10)” value was 1.56.

For the sequence “TAGCTTCCATGGACCGGTTTTCCCGGTAATCCGTATTTGGG (site TAGCTTCCTCC)”, the “recombinant UMI read abundance (log10)” value amounted to 0.0588.

Regarding “TAGCTTGCATGGACCGGTTTTCCCGGTAATCCGTATTTGAA (site TAGCTAGCTTT)”, the “recombinant UMI read abundance (log10)” value turned out to be 0.0193.

Take “TAGCTTGCATGGACCGGTTTTCCCGGTAATCCGTATTTGAA (site TAGCTCGCTTT)”: the “recombinant UMI read abundance (log10)” value is 0.0167.

Consider “TAGCTTGCATGGACCGGTTTTCCCGGTAATCCGTATTTGAA (site TAGCTGGCTTT)”, for which the “recombinant UMI read abundance (log10)” value was 0.02.

“TAGCTTGCATGGACCGGTTTTCCCGGTAATCCGTATTTGAA (site TAGCTTGCTTT)”: the “recombinant UMI read abundance (log10)” value is 1.4.

For the sequence “TAGCTTTCATGGACCGGTTTTCCCGGTAATCCGTATTTGGT (site TAGCATTCTAC)”, the “recombinant UMI read abundance (log10)” value amounted to 0.374.

As for “TAGCTTTCATGGACCGGTTTTCCCGGTAATCCGTATTTGGT (site TAGCCTTCTAC)”, the “recombinant UMI read abundance (log10)” value is 0.157.

With “TAGCTTTCATGGACCGGTTTTCCCGGTAATCCGTATTTGGT (site TAGCGTTCTAC)”, the “recombinant UMI read abundance (log10)” value came to 0.

“TAGCTTTCATGGACCGGTTTTCCCGGTAATCCGTATTTGGT (site TAGCTTTCTAC)”: the “recombinant UMI read abundance (log10)” value is 0.807.

As to “TAGGAAACATGGACCGGTTTTCCCGGTAATCCGTATTTGCG (site TAGGAAACTCG)”, the “recombinant UMI read abundance (log10)” value is 2.39.

For the sequence “TAGGAAACATGGACCGGTTTTCCCGGTAATCCGTATTTGCG (site TAGGAACCTCG)”, the “recombinant UMI read abundance (log10)” value came out at 0.

In the case of “TAGGAAACATGGACCGGTTTTCCCGGTAATCCGTATTTGCG (site TAGGAAGCTCG)”, the “recombinant UMI read abundance (log10)” value stood at 2.11.

Regarding “TAGGAAACATGGACCGGTTTTCCCGGTAATCCGTATTTGCG (site TAGGAATCTCG)”, the “recombinant UMI read abundance (log10)” value was 1.75.

As to “TAGGCTGCATGGACCGGTTTTCCCGGTAATCCGTATTTGGT (site TAGGCTGCTAC)”, the “recombinant UMI read abundance (log10)” value was determined as 0.811.

Turning to “TAGGGATCATGGACCGGTTTTCCCGGTAATCCGTATTTGCG (site TAGGAATCTCG)”, the “recombinant UMI read abundance (log10)” value came to 2.07.

In the case of “TAGGGATCATGGACCGGTTTTCCCGGTAATCCGTATTTGCG (site TAGGCATCTCG)”, the “recombinant UMI read abundance (log10)” value was determined as 0.735.

As for “TAGGGATCATGGACCGGTTTTCCCGGTAATCCGTATTTGCG (site TAGGGATCTCG)”, the “recombinant UMI read abundance (log10)” value turned out to be 2.78.

In the case of “TAGGGATCATGGACCGGTTTTCCCGGTAATCCGTATTTGCG (site TAGGTATCTCG)”, the “recombinant UMI read abundance (log10)” value worked out at 1.27.

Take “TAGGGATCATGGACCGGTTTTCCCGGTAATCCGTATTTGCT (site TAGGGATCTAG)”: the “recombinant UMI read abundance (log10)” value stood at 2.31.

On to “TAGGGGACATGGACCGGTTTTCCCGGTAATCCGTATTTGTT (site TAGGGGACTAA)”, for which the “recombinant UMI read abundance (log10)” value is 1.75.

As to “TAGGGTGCATGGACCGGTTTTCCCGGTAATCCGTATTTGAC (site TAGGGTGCTGT)”, the “recombinant UMI read abundance (log10)” value amounted to 2.6.

For “TAGGGTGCATGGACCGGTTTTCCCGGTAATCCGTATTTGCC (site TAGGGTGCTGG)”, the “recombinant UMI read abundance (log10)” value turned out to be 2.58.

For the sequence “TAGGTTACATGGACCGGTTTTCCCGGTAATCCGTATTTGAT (site TAGGTTACTAT)”, the “recombinant UMI read abundance (log10)” value was determined as 1.79.

Take “TAGGTTGCATGGACCGGTTTTCCCGGTAATCCGTATTTGGT (site TAGGTTGCTAC)”: the “recombinant UMI read abundance (log10)” value was 1.27.

“TAGTCTTCATGGACCGGTTTTCCCGGTAATCCGTATTTGGT (site TAGACTTCTAC)”: the “recombinant UMI read abundance (log10)” value was 0.017.

For the sequence “TAGTCTTCATGGACCGGTTTTCCCGGTAATCCGTATTTGGT (site TAGCCTTCTAC)”, the “recombinant UMI read abundance (log10)” value is 0.322.

Take “TAGTCTTCATGGACCGGTTTTCCCGGTAATCCGTATTTGGT (site TAGGCTTCTAC)”: the “recombinant UMI read abundance (log10)” value was determined as 0.012.

With “TAGTCTTCATGGACCGGTTTTCCCGGTAATCCGTATTTGGT (site TAGTCTTCTAC)”, the “recombinant UMI read abundance (log10)” value came out at 0.376.

With “TAGTGTACATGGACCGGTTTTCCCGGTAATCCGTATTTGGT (site TAGTGTACTAC)”, the “recombinant UMI read abundance (log10)” value was determined as 0.534.

For “TAGTTGACATGGACCGGTTTTCCCGGTAATCCGTATTTGCT (site TAATTGACTAG)”, the “recombinant UMI read abundance (log10)” value worked out at 1.17.

With “TAGTTGACATGGACCGGTTTTCCCGGTAATCCGTATTTGCT (site TACTTGACTAG)”, the “recombinant UMI read abundance (log10)” value came to 0.55.
